ChEMBL document CHEMBL5126555, “Targeting breast cancer resistance protein (BCRP/ABCG2): Functional inhibitors and expression modulators” (Eur J Med Chem, 2022)

Experiments:
[1] = molecular target: T1, Broad substrate specificity ATP-binding cassette transporter ABCG2 (Homo sapiens, UniProt Q9UNQ0); test: Inhibition of ABCG2 (unknown origin) expressed in human NCI-H460 cells mediated pheophorbide A efflux for 2 to 20 hr by fluorescence plate reader analysis; format: cell-based
T1 sequence (Q9UNQ0 whole entry): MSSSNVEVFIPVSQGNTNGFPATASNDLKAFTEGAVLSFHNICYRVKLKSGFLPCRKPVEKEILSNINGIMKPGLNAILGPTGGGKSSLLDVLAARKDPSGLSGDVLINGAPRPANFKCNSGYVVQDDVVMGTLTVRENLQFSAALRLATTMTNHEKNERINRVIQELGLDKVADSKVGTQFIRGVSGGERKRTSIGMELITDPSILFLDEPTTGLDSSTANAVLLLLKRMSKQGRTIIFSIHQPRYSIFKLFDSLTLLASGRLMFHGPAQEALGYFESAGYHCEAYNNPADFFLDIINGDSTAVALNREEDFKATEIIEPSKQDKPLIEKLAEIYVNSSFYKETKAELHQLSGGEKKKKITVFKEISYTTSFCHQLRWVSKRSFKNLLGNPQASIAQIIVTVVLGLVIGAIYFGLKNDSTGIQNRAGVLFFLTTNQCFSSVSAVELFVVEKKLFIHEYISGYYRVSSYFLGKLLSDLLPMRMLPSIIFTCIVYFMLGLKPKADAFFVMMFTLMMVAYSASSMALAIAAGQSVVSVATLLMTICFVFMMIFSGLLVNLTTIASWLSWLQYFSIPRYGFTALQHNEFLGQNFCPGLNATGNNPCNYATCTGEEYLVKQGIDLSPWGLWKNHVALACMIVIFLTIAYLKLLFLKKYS

[2] = molecular target: T1, Broad substrate specificity ATP-binding cassette transporter ABCG2; test: Inhibition of ABCG2 (unknown origin) expressed in human S1M180 cells mediated [3H]-mitoxantrone efflux assessed as intracellular [3H]-mitoxantrone level by flow cytometry; format: cell-based
[3] = molecular target: T1, Broad substrate specificity ATP-binding cassette transporter ABCG2; details: saos-2
Description: Inhibition of ABCG2 (unknown origin) expressed in human SAOS-2 cells mediated Hoechst 33342 efflux preincubated with compound for 15 mins followed by substrate addition and measured after 45 mins using Hoechst 33342 as substrate by flow cytometry

[4] = molecular target: T1, Broad substrate specificity ATP-binding cassette transporter ABCG2; test: Inhibition of ABCG2 (unknown origin) expressed in human HEK293 cells mediated mitoxantrone efflux assessed as intracellular mitoxantrone level and measured after 30 mins by FACSflow cytometry analysis; format: cell-based
[5] = molecular target: T1, Broad substrate specificity ATP-binding cassette transporter ABCG2; test: Inhibition of ABCG2 (unknown origin) expressed in human MCF7-VP cells mediated mitoxantrone efflux assessed as intracellular mitoxantrone level and measured after 45 mins by flow cytometry analysis; format: cell-based
[6] = molecular target: T1, Broad substrate specificity ATP-binding cassette transporter ABCG2; test: Inhibition of ABCG2 (unknown origin) expressed in human HEK293 cells assessed as BODIPY-Prazosin uptake and measured after 2 hrs by FACScan flow cytometry analysis; format: cell-based
[7] = molecular target: T1, Broad substrate specificity ATP-binding cassette transporter ABCG2
Description: Inhibition of ABCG2 (unknown origin) expressed in human MCF7 cells membrane mediated [125I]iodoarylazidoprazosin photolabelling for 5 mins followed by UV light irradiation for 10 mins by radiometric scintillation analysis

[8] = molecular target: T1, Broad substrate specificity ATP-binding cassette transporter ABCG2; test: Inhibition of human ABCG2 expressed in dog MDCK-II-BCRP cells membrane vesicles mediated transport of 3[H]-methotrexate for 5 mins using [3H]-methotrexate as substrate by radiometric scintillation analysis; format: cell membranes, Membrane vesicle
[9] = molecular target: T1, Broad substrate specificity ATP-binding cassette transporter ABCG2; test: Inhibition of ABCG2 (unknown origin) expressed in human K562 cells assessed as extrusion of Hoechst 33342 using Hoechst 33342 as substrate by flow cytometry; format: cell-based
[10] = molecular target: T1, Broad substrate specificity ATP-binding cassette transporter ABCG2; test: Inhibition of ABCG2 (unknown origin) expressed in human S1M180 cells assessed as intracellular accumulation of rhodamine 123 using rhodamine 123 as substrate by flow cytometry; format: cell-based
[11] = molecular target: T1, Broad substrate specificity ATP-binding cassette transporter ABCG2; test: Inhibition of human ABCG2 expressing membrane vesicles assessed inhibition of BCRP- mediated transport of [3H]estrone 3-sulfate for 2 mins using [3H]-estrone sulfate as substrate by radiometric scintillation analysis; format: cell membranes, Membrane vesicle
[12] = molecular target: T1, Broad substrate specificity ATP-binding cassette transporter ABCG2; test: Inhibition of ABCG2 (unknown origin) expressed in human MCF7 cells membrane mediated [125I]iodoarylazidoprazosin photolabelling for 10 mins followed by UV light irradiation for 10 mins by radiometric scintillation analysis; format: cell membranes

COC(=O)[C@H]1[C@H]2C[C@@H]3c4[nH]c5cc(OC)ccc5c4CCN3C[C@H]2C[C@@H](OC(=O)c2cc(OC)c(OC)c(OC)c2)[C@@H]1OC [RESERPINE]
IC50 [1]: 11800 nM

CNC(=O)c1cc(Oc2ccc(NC(=O)Nc3ccc(Cl)c(C(F)(F)F)c3)c(F)c2)ccn1 [REGORAFENIB]
IC50 [2]: 3000 nM

CNC(=O)c1cc(Oc2ccc(NC(=O)Nc3ccc(Cl)c(C(F)(F)F)c3)cc2)ccn1 [SORAFENIB]
IC50 [3]: 3100 nM

c1ccc2c(c1)OCO2
IC50 [4]: 940 nM

COc1cc(/C=C/C(=O)CC(=O)/C=C/c2ccc(O)c(OC)c2)ccc1O [CURCUMIN]
IC50 [5]: 1630 nM

CS(=O)(=O)c1ccc(C(=O)Nc2ccc(Cl)c(-c3ccccn3)c2)c(Cl)c1 [VISMODEGIB]
IC50 [6]: 1400 nM

CS(=O)(=O)CCNCc1ccc(-c2ccc3ncnc(Nc4ccc(OCc5cccc(F)c5)c(Cl)c4)c3c2)o1 [LAPATINIB]
IC50 [7]: 3200 nM

CC1=NN(c2ccc(C)c(C)c2)C(=O)/C1=N\Nc1cccc(-c2cccc(C(=O)O)c2)c1O [ELTROMBOPAG]
IC50 [8]: 3100 nM

COc1cc(Nc2c(C#N)cnc3cc(OCCCN4CCN(C)CC4)c(OC)cc23)c(Cl)cc1Cl [BOSUTINIB]
IC50 [9]: 2000 nM

COc1cc2c(Nc3ccc(Br)cc3F)ncnc2cc1OCC1CCN(C)CC1 [VANDETANIB]
IC50 [10]: 200 nM

COc1cc(Nc2ncc(F)c(Nc3ccc4c(n3)N(COP(=O)(O)O)C(=O)C(C)(C)O4)n2)cc(OC)c1OC [FOSTAMATINIB]
IC50 [11]: 50 nM

COc1cc2nccc(Oc3ccc(NC(=O)Nc4cc(C)on4)c(Cl)c3)c2cc1OC [TIVOZANIB]
IC50 [12]: 70 nM
